Activity calls are given as the source filed them.
Key:
[1] = test system: Human alphaherpesvirus 2; assay: Compound was tested for antiviral activity against HSV-2; Not active; format: functional, organism-based
[2] = test system: MDCK; assay: Compound was tested for antiviral activity against influenza A in MDCK cells at concentration of 100 uM; Not active; format: functional, cell-based; details: Canis lupus familiaris
[3] = test system: Human immunodeficiency virus 1; assay: Compound was tested for antiviral activity against HIV-1; Not active; format: functional
[4] = test system: MDCK; assay: Compound was tested for antiviral activity against influenza B in MDCK cells at concentration of 100 uM; Not active; format: functional, cell-based; details: Canis lupus familiaris
[5] = test system: Human betaherpesvirus 5; assay: Compound was tested for antiviral activity against HCMV; Not active; format: functional, organism-based
[6] = test system: Human alphaherpesvirus 3; assay: Compound was tested for antiviral activity against VZV; Not active; format: functional, organism-based

Measured: Activity

NC(=O)c1ncn(C2O[C@H](CO)C(O)[C@H]2F)n1 (single isomer, unassigned)
inactive: all assays above

NC(=O)c1ncn([C@@H]2O[C@H](CO)C(O)[C@H]2F)n1 (single isomer, unassigned)
inactive: all assays above

Source: ChEMBL document CHEMBL1150542, “Enzymatic synthesis and antiviral ativity of 2-deoxy-2-fluoro-ribavirin” (Bioorg Med Chem Lett, 1996)
